Assay results: patent US9611301B2, “GB virus C (hepatitis G virus) E2 glycoprotein as an immunomodulatory agent” (priority 2012, dated 2017)
Where no end group is shown, it is not given here.

Key:
[1] = target: T1, Lck (Homo sapiens, UniProt P06239); assay: Lck mediated phosphorylation of TAT-peptides (Lck kinase enzyme system); type: biochemical; conditions: in vitro
T1 construct: purchased Promega
Description: CD45 activity was measured using CD45 tyrosine phosphatase assay kit (Enzo Life Sciences) following the manufacturer's instructions. Purified recombinant GBV-C E2 protein expressed in CHO cells was described previouslyl^2. Enzymatic activity was evaluated with or without GBV-C E2 protein (10 μg) or human IgG control (10 μg; Sigma) at room temperature. Following 1 hour incubation, the reaction was terminated and absorbance determined by a Microplate reader (Model 680, Bio-Rad) at OD620nm. Phosphorylation of GBV-C E2 protein by Lck was measured by incubating recombinant E2 protein (40 μg) with or without human Lck ([…]; R&D Systems) as recommended by the manufacturer. Samples were subjected to immunoblot analysis as described above. Phosphorylation was determined by immunoblot analysis with phosphotyrosine antibodies (Invitrogen) and GBV-C E2 protein was identified using an anti-E2 monoclonal antibody. Lck mediated phosphorylation of GBV-C E2 derived TAT-peptides were performed using Lck kinase enzyme system (Promega) as recommended by the manufacturer.

[2] = tested on: Healthy donors PBMCs; assay: IL-2 production by PBMCs incubated with synthetic TAT peptides, anti-CD3/CD28 stimulation; type: cell-based, human; conditions: 20 μg peptide over night, anti-CD3/CD28 500 ng/ml, 24 hrs
From the text: pLAT (Y191) was quantified using PathScan ELISA kit (Cell Signaling Technology) and IL-2 cytokine released into cell culture supernatant was quantified using human IL-2 quantikine ELISA kit (R&D Systems) according to manufacturer's instructions.
(§1) FITC labelled synthetic peptides with an N-terminal HIV TAT protein transduction domain (TAT) alone (GGGGGRKKRRQRRR; SEQ ID NO: 13), or with the GBV-C E2 aa 86-101 ([…]; SEQ ID NO: 14; Y87), or the Y87H mutation ([…]; SEQ ID NO: 15) were obtained from Ana Spec, Inc. Peptides with the TAT domain and GBV-C E2 aa 276-292 (GGAGLTGGRYEPLVRRC; SEQ ID NO: 16), or the same amino acids in a scrambled order (GCRCARGVLLTPGEGYF; SEQ ID NO: 17) as previously described^28. Peptides were dissolved in RPMI with 10% DMSO. The TAT domain enhances cellular uptake of the peptide. Healthy donors PBMCs (1×10^6 cells/ml) were incubated with 20 μg peptide at 37° C. over night before stimulation with 500 ng/ml anti-CD3/CD28. IL-2 release and cellular receptor expression was analyzed 24 hrs later.

[3] = tested on: primary human CD4+ and CD8+ T cells; assay: CD69 and CD25 surface expression on CD4+ and CD8+ T cells incubated with synthetic TAT peptides; type: cell-based; conditions: compared to mutant or control peptide
Description: Cellular receptor expression was measured using the following antibodies per manufacturer's recommendation: CD69 (PE), CD25 (APC), CD45 (PE) (BD Biosciences). Cells were incubated on ice for 1 hour, washed 3 times with PBS and fixed in 2% paraformaldehyde (Polysciences). Data was acquired on BD LSR II flow cytometer using single stained CompBeads (BD Biosciences) for compensation. At least 10,000 total events were collected in each experiment and the FlowJo program (Tree Star Inc.) was used for data analysis. All flow cytometry experiments were repeated at least three times with consistent results.
as §1

T1 sequence (P06239 whole entry, species assumed): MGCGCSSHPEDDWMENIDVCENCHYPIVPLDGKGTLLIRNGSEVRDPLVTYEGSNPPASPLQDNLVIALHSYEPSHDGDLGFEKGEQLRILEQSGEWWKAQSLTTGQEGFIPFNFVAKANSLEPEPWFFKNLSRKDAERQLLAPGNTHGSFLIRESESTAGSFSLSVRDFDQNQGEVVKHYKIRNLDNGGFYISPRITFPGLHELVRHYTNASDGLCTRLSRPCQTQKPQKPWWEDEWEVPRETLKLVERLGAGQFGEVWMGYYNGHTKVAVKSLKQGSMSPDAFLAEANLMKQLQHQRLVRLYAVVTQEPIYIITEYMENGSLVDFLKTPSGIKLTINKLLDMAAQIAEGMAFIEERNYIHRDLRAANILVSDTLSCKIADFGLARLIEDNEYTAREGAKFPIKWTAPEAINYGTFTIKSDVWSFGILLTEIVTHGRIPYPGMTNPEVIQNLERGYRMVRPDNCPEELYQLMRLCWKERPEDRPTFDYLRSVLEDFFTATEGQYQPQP

Sequence | Lck mediated phosphorylation of peptide (Lck substrate) [1] | IL-2 production [2] | surface expression of CD25 [3] | surface expression of CD69 [3]
GGAGLTGGRYEPLVRRC [TAT-276-292] | served as a Lck substrate in vitro |  |  | 
GGGGGRKKRRQRRR (also: FITC label, site not given here) [TAT control, HIV TAT protein transduction domain alone; negative control, reference compound] |  | not |  | 
GGGGGRKKRRQRRRVHGSVSVTCVWGS (also: FITC label, site not given here) [TAT-Y87H, TAT peptide with the Y87H mutation] |  | not |  | 
GGGGGRKKRRQRRRVYGSVSVTCVWGS (also: FITC label, site not given here) [TAT-Y87, synthetic peptide, N-terminal HIV TAT protein transduction domain with GBV-C E2 aa 86-101] | phosphorylated by Lck in a dose-dependent manner | inhibited | significantly reduced | significantly reduced
